Source: patent publication US6309842A, “Use of modified tethers in screening compound libraries” (Glaxo Wellcome Inc., priority 1997, dated 2001)

Key:
[1] = molecular target: T1, yeast α-factor receptor (STE2) (Saccharomyces cerevisiae, UniProt D6VTK4); assay: Secretion of acid phosphatase into the medium by yeast ARY84 (pNPP assay); type: cell-based; conditions: for % of total acid-phosphatase activity in medium: 24 Hrs; for Induction ratio: growth selection, 500 nM vs no alpha-factor
T1 construct: expressed in transfected cells; host or cells: yeast strain ARY84 (Δste2::ura3, plasmid pRS416(URA3)-STE2)
T1 sequence (D6VTK4 1-431): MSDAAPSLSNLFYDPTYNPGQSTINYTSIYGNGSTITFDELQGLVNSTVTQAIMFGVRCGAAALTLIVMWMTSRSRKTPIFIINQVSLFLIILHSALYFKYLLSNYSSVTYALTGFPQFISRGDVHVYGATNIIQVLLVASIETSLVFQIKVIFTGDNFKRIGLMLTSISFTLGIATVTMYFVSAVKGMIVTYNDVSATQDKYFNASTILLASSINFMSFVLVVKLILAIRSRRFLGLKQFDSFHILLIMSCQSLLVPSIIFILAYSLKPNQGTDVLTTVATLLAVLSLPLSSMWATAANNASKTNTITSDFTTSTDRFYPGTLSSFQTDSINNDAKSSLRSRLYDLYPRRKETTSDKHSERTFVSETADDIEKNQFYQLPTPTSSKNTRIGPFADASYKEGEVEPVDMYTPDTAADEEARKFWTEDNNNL
Text: The strain used in these experiments is designated ARY84 (Mata prc1-407 prb1-1122 pep4-3 leu2, 3-112 ura3-52 trp1 far1::ura3 Δhis3::APT2 FUS1::HIS3 Δste2::ura3 Δsst2::ura3 Δpho5::TRP1 LEU2::pCMGy64(::FUS1-PHO3) [pRS416(URA3)-STE2]. This yeast is engineered to grow in the presence of an agonist, and also to secrete acid phosphatase as a result of agonist stimulation. The yeast strain used in these experiments bears a mutation in the SST2 gene to enhance sensitivity to agonist, an inactivating mutation in the FAR1 gene to allow growth in the presence of agonist and an inactivating mutation in the HIS3 gene. The FUS1 gene promoter stimulates transcription of two reporter genes. The first reporter gene is HIS3. 3-aminotriazole can be used to titrate out the background activity of the HIS3 gene product resulting in growth arrest due to histidine starvation. Stimulation of HIS3 transcription from the FUS1 promoter overcomes the inhibitory effect of 3-aminotriazole, allowing growth of agonist-stimulated yeast cells. The second reporter gene is PHO3 (which was obtained by PCR from yeast genomic DNA). This gene encodes secreted yeast acid phosphatase (see Johnston & Carlson, in The Molecular and Cellular Biology of the Yeast Saccharomyce, (eds. Jones et al., CSHP, 1992) Vol. 2, Ch. 5). STE2 encodes the yeast α-factor receptor. The mutation in the […] reduces the background of acid phosphatase secreted by the yeast, though this mutation may not be necessary.
α-factor is the natural peptide agonist of the yeast α-factor receptor. The term "Growth selection" refers to growing the yeast in a defined medium (e.g., synthetic complete) (see Rose et al., Methods in Yeast Genetics: A Laboratory Course Manual (CSHLP, 1990)) lacking histidine and containing sufficient 3-aminotriazole to inhibit growth such that yeast only grow when the HIS3 gene product is expressed from the FUS1 promoter following stimulation of the STE2 receptor by α-factor. Lack of growth selection is achieved by leaving out the 3-aminotriazole and adding histdine.
Acid phosphatase activity in the yeast growth medium was quantitated using a […] assay with the substrate para-nitrophenyl phosphate (pNPP), measuring the appearance of yellow color (Payne et al., Gene 163, 19-26 (1995). When yeast were grown under various growth conditions (+/-saturating (500 nM) concentrations of α-factor, between 26% and 69% of the total acid phosphatase activity is secreted into the medium (Table 1).

[2] = molecular target: T1, yeast α-factor receptor (STE2); assay: ELISA of agonist-induced well marking by ARY84 (dephosphorylation of AF12402 tether, 3E7 detection); type: cell-based; conditions: for Well-marking activity: selective conditions
Method: A plastic 96-well immunoassay plate (Beckman #373660) was coated with 0.41 μM streptavidin for 1 hour at 37° C. After washing, it was blocked with 1×PBS, 1% bovine serum albumin (BSA) for 1 hr at 37° C. After washing, 100 nM of AF12402 ((H)-(Phospho-Y)[…](biotin)(OH)) (SEQ ID NO:7) in 1×PBS, 0.1% BSA was incubated on the plate overnight at 4° C. The wells were washed with 1×PBS and a yeast culture containing ARY84 at a density of OD600 =0.1 in defined medium was added to the plate. The following conditions were tested: +growth selection, no α-factor; +growth selection, +500 nM α-factor.
After addition of yeast the culture was either removed immediately (t=0; wells were filled with 1×PBS/ 0.1% BSA) or after 24 hr incubation at 30° C. At the end of the incubation, the wells were washed and developed using a standard protocol with 1 nM 3E7 antibody for the primary development (4° C., 1 hr) and 1/1000 diluted alkaline phosphatase conjugated goat anti-mouse antibody (Gibco) at 4° C. for 1 hr. Binding of antibodies was quantitated using a standard colorimetric alkaline-phosphatase reaction (see Cull et al., PNAS 89, 1865-1869 (1992)).

Substance: α-factor
- Increase in acid phosphatase activity in the medium compared to absence of α-factor ([1]; 500 nM α-factor, no growth selection, 24 hr): 16-20 fold
- % of total acid-phosphatase activity in medium ([1]; alpha-factor +, growth selection +): 63%
- % of total acid-phosphatase activity in medium ([1]; alpha-factor +, growth selection -): 69%
- Acid phosphatase activity in the medium ([1]; 24 hours, selection +, alpha-factor +, clone #1): 0.01279 OD405 units/minute
- Acid phosphatase activity in the medium ([1]; 24 hours, selection +, alpha-factor +, clone s3): 0.02892 OD405 units/minute
- Acid phosphatase activity in the medium ([1]; 24 hours, selection -, alpha-factor +, clone #1): 0.06481 OD405 units/minute
- Acid phosphatase activity in the medium ([1]; 24 hours, selection -, alpha-factor +, clone s3): 0.1001 OD405 units/minute
- Acid phosphatase activity in the medium ([1]; 48 hr, growth selection (+10 mM 3-aminotriazole), 500 nM alpha-factor, clone #1): 0.05768 OD405 units/minute
- Acid phosphatase activity in the medium ([1]; 48 hr, growth selection (+10 mM 3-aminotriazole), 500 nM alpha-factor, clone s3): 0.1062 OD405 units/minute
- Induction ratio ([1]; 48 hr, clone #1): 32.4
- Induction ratio ([1]; 48 hr, clone s3): 58.7
- Increase in acid phosphatase activity in the medium compared to absence of α-factor ([1]; with growth selection, 48 hours, 0.5 µM): 32-58 fold
- Increase in OD405 compared to wells lacking α-factor ([2]; 24 hr growth of yeast in the wells, 0.5 µM): 4 fold
- Well-marking activity ([2]; T = 0, 500 nM alpha factor): 0.11 OD405 units/minute
- Well-marking activity ([2]; T = 0, 500 nM alpha factor, listed as alpha factor): 0.113 OD405 units/minute
- Well-marking activity ([2]; T = 24 Hrs, 500 nM alpha factor): 0.8 OD405 units/minute
